What was measured:
[1] = tested on: MUC-2 expression in intestinal epithelial T84 cells; conditions: 24 h, 0.025-4.0 mM, MC T84 and CC T84, compared to propionate and butyrate
[2] = tested on: intestinal epithelial cell lines T84 monolayers; test: Effect of LC-PUFA on basal (spontaneous) barrier integrity: TER and 4 kD FITC dextran flux in T84 monolayers; format: cell-based, human; conditions: for effect on epithelial resistance (in words) / effect on molecular flux (in words): 100 μM, 72 hr, Table 1; for basal barrier integrity (TER), FIG. 1 (in words): time and dose (10 μM and 100 μM) dependent
Method: (§1) Monolayers (MC) of intestinal epithelial cell lines T84 (American Type Culture Collection (ATTC), Manassas, USA) were cultured on transwell filters (Corning, Costar B V, The Netherlands) allowing both mucosal and serosal sampling and stimulation of human intestinal epithelial cells. Two weeks post confluency the monolayers were incubated in the luminal compartment with polyunsaturated fatty acids ARA (arachidonic acid; 5,8,11,14-eicosatetraenoic acid), DHA (cis-4,7,10,13,16,19 docosahexaenoic acid), EPA (eicosapentaenoic acid) or control palmitic (C 16:0) acid (Palm) (Sigma, St. Louis, USA). The latter procedure was chosen to mimic the in vivo administration route of the dietary compounds. Cells were incubated with ARA, DHA, EPA, GLA or palmitic acid for 0, 24, 48 and 72 hr at different concentrations (10 μM and 100 μM). Experiments were performed to evaluate basal barrier integrity. The epithelial barrier function was determined by measuring the transepithelial resistance (TER, Ω.cm^2) was measured by epithelial volt-ohm meter (EVOM; World Precision Instruments, Germany) and permeability for 4 kD FITC dextran (paracellular permeability marker, Sigma, USA). Resistance (. Epithelial permeability for 4 kDa FITC-dextran was determined as follows. Prior to dextran fluxes the medium was refreshed with culture medium without phenol red for one hour followed by addition of 5 μl (stock 100 mg/ml) 4 kDa FITC-dextran to the lumenal compartment. After 30 min incubation 100 μl sample was collected from the serosal compartment and the fluorescent signal measured at excitation wavelength 485 nm and emission 520 nm (FLUOstar Galaxy®, BMG Labtechnologies, USA). FITC-dextran fluxes were calculated as pmol FITC-dextran/cm^2/h. Statistical analyses were performed using the ANOVA (SPSS version 10).

[3] = tested on: intestinal epithelial cell lines T84 monolayers incubated with IL-4; test: Effect of LC-PUFA on IL-4 mediated barrier disruption: TER and flux in T84 monolayers; format: cell-based, human; conditions: for Permeability (IL-4 Flux) / Resistance (IL-4 TER) / effect on IL-4 mediated barrier disruption (flux), in words: 100 μM; for Permeability (IL-4 Flux) / Resistance (IL-4 TER): 48 hr pre-incubation then 48 hr co-incubation with IL-4 2 ng/ml; for effect on IL-4 mediated barrier disruption (flux), in words: Table 2; for IL-4 mediated barrier destruction (Flux), FIG. 2 (in words): time and dose (10 μM and 100 μM) dependent, 4 kD dextran flux
Method: as §1
Monolayers (MC) of intestinal epithelial cell lines T84 (ATCC, USA) were cultured on transwell filters (Corning, Costar B V, The Netherlands) allowing both mucosal and serosal sampling and stimulation of human intestinal epithelial cells. Two weeks post confluency the monolayers were incubated in the presence of IL-4 (2 ng/ml, serosal compartment, Sigma, USA ) with or without polyunsaturated fatty acids ARA, DHA, GLA, EPA, or control palmitic acid (10 μM or 100 μM, mucosal compartment, Sigma, St. Louis, USA). Cells were pre-incubated with GLA, ARA, DHA, EPA, or palmitic acid for 48 hr prior to the IL-4 incubation. The co-incubation of PUFA's and palmetic acid with IL-4 was continued for another 48 hr; while culture medium and additives were changed every 24 hr. The epithelial barrier function was determined by measuring the transepithelial resistance (TER) and permeability as described in example 1. Statistical evaluation was performed as described in example 1.

SMILES	stimulating MUC-2 expression (mucus production), FIG. 4 (in words) [1]	effect on epithelial resistance (in words) [2]	effect on molecular flux (in words) [2]	basal barrier integrity (TER), FIG. 1 (in words) [2]	Permeability (IL-4 Flux) [3]	Resistance (IL-4 TER) [3]	effect on IL-4 mediated barrier disruption (flux), in words [3]	IL-4 mediated barrier destruction (Flux), FIG. 2 (in words) [3]
CC(=O)O [acetate]	more potent	–	–	–	–	–	–	–
CCCCCC=CCC=CCC=CCC=CCCCC(=O)O [ARA, 5,8,11,14-eicosatetraenoic acid]	–	improve epithelial resistance	reduce the molecular flux	increased resistance	273 ↓ pmol FITC-dextran/cm^2/h	337 ↑ Ω.cm^2	inhibit the increased flux caused by IL-4	decreased 4 kD dextran flux
CCCCCCCCCCCCCCCC(=O)O [Palmitic acid, palmitic acid, reference compound]	–	opposite effects	opposite effects	–	–	–	detrimental effect	–
CCCCC/C=C\C/C=C\C/C=C\CCCCC(=O)O [GLA, gamma linolenic acid]	–	improve epithelial resistance	reduce the molecular flux	increased resistance	360 ↓ pmol FITC-dextran/cm^2/h	331 ↑ Ω.cm^2	inhibit the increased flux caused by IL-4	decreased 4 kD dextran flux
CC/C=C\C/C=C\C/C=C\C/C=C\C/C=C\CCCC(=O)O [EPA, eicosapentaenoic acid]	–	–	–	–	236 ↓ pmol FITC-dextran/cm^2/h	375 ↑ Ω.cm^2	–	–
CCC=CCC=CCC=CCC=CCC=CC/C=C\CCC(=O)O [DHA, cis-4,7,10,13,16,19 docosahexaenoic acid]	–	improve epithelial resistance	reduce the molecular flux	increased resistance	304 ↓ pmol FITC-dextran/cm^2/h	328 ↑ Ω.cm^2	inhibit the increased flux caused by IL-4	decreased 4 kD dextran flux

Reference: patent US20080015166A1, “Barrier Integrity in Hiv Patients” (N.V. Nutricia, priority 2004, published 2008)
